Where a name gives a salt, the structure may show the parent alone. Read-outs that look alike come from different tables or passages of the source.

The subject of data set [1] is isolated fat cells. The settings on record: in vitro; cited from earlier work.
The test system of data set [2] is adipose tissue cyclic AMP phosphodiesterase. The settings on record: cited from earlier work.
The conditions of data set [3]: cited from earlier work.
For data set [4] the following is noted: in vivo; cited from earlier work.
The conditions of data set [5]: 5 mg at 2230 h; cited from earlier work.
For data set [6] the following is noted: in vivo; cited from earlier work. This is another data set of the same source.
The conditions of data set [7]: for Cholesterol / HDL-Chol / Plasma Glucose / Plasma Insulin / Reproperitoneal Fat / Triglyceride: 18 days after last treatment; for Food Consumption: P 4 mg/kg or M 500 μg/kg oral, two weeks.
Procedure: Forty male older Sprague-Dawley rats (6 months of age) were separated into 5 groups of 8 rats each. […] A control group (C) received peanut butter only daily at 0800 and 1800. Rat chow (Purina) was made available ad libitum. Treatment lasted two weeks. Blood samples were taken and retroperitoneal fat was dissected and weighed 18 days after the last day of treatment. This made it possible to assess long term effects of the treatment. […] All animals were fasted 6 hours prior to blood sampling and sacrifice.
The conditions of data set [8]: 0.5 mg intramuscularly, cited from earlier work.
Data set [9] in a line: Timed administration of methyl scopolamine, long-term effects (Example 7). The settings on record: for Retroperitoneal Fat: 0.5 mg/kg BW two weeks. Type of data set: in vivo, Sprague-Dawley rat. The procedure: Methylscopolamine (MSC) (0.5 mg/kgBW) in 1 mL peanut butter was fed at light onset (AM) or at light offset (PM) to 9 Sprague-Dawley rats (30 weeks old) in each group daily for two weeks. Nine-other rats were fed only peanut butter. 18 days after the last treatment, the rats were sacrificed and the indices in Table 6 were measured.

For data set [10] the following is noted: 0.5 or 0.75 mg s.c., cited from earlier work.
The conditions of data set [11]: 2.5 mg once, cited from earlier work.
The conditions of data set [12]: 7.5 to 20 mg daily by mouth; cited from earlier work.
For data set [13] the following is noted: in vivo; cited from earlier work. This is another data set of the same source.
Data set [14] deals with 3-hydroxy-3-methylglutaryl coenzyme A (HMG-CoA) reductase. The settings on record: cited from earlier work.
For data set [15] the following is noted: in vivo; cited from earlier work. The source holds these as a separate data set.
The conditions of data set [16]: cited from earlier work. The source holds these as a separate data set.
The conditions of data set [17]: 3.0 and 6.0 μg/kg intramuscularly at 11:00 pm; cited from earlier work.
Where [18] appears, read: dosed at 0800, 18 days post-treatment.
Where [19] appears, read: AM, 18 days after last treatment.
The mark [20] stands for this setting: PM, 18 days after last treatment.
Where [21] appears, read: light-offset vs light-onset administration.

Turning to `CN1[C@@H]2C[C@@H](OC(=O)[C@H](CO)c3ccccc3)C[C@H]1[C@@H]1O[C@@H]12` [scopolamine hydrobromide], in data set [1], the “glycerol release from isolated fat cells” value was “did not significantly affect”. Moreover, the “adipose tissue cyclic AMP phosphodiesterase activity” value in data set [2] is on record as “nor inhibited”.

In the case of `C[N+]1(C)[C@@H]2C[C@@H](OC(=O)[C@H](CO)c3ccccc3)C[C@H]1[C@@H]1O[C@@H]12` [methyl scopolamine], the tolerability entry in data set [3] (chronic use of 5 mg) is listed as “not particularly well tolerated by most patients”. In addition, in [3] (given at bedtime), the dawn phenomenon result is recorded as “attenuated” and the “sleep induced growth hormone secretion” value is “suppressed”. For the same molecule, the half-life in data set [4] was 4 to 6 h. Besides, in data set [5], the dawn effect result was “decrease” and the “peak growth hormone concentrations after sleep” value is “marked inhibition”. The “effect of physostigmine on plasma pituitary hormones (cortisol, prolactin, ACTH)” value in [6] was “inhibited”. In data set [7] (dosed at 0800), the “food consumption, change in words” value is “significant increase”; the Cholesterol is given as 96.8 ± 1.8 mg/dL; the HDL-Chol is on record as 43.9 ± 2.7 mg/dL; the “Plasma Glucose” value is given as 158 ± 4. Besides, in data set [7] (dosed at 0800), the “Plasma Insulin” value came to 118 ± 7, the “Reproperitoneal Fat” value came to 2.18 ± 0.31 g, the Triglyceride was determined as 90.0 ± 3.1 mg/dL and the “Food Consumption” value is 17.5 ± 1.3 g/day. Moreover, in data set [7] (setting [18]), the “insulin resistance (plasma insulin and glucose), in words” value was “improved insulin resistance”; the “plasma lipid indices, change in words” value is on record as “significantly reduced retroperitoneal body fat, plasma lipid indices”; the “retroperitoneal body fat, change in words” value was “significantly reduced retroperitoneal body fat”. Besides, in data set [7] (dosed at 1800), the Cholesterol stood at 133.6 ± 1.9 mg/dL, the HDL-Chol was determined as 61.0 ± 1.9 mg/dL, the “Plasma Glucose” value stood at 148 ± 7 and the “Plasma Insulin” value is recorded as 171 ± 14. Moreover, in [7] (dosed at 1800), the “Reproperitoneal Fat” value stood at 2.61 ± 0.19 g, the Triglyceride was determined as 188.0 ± 5.7 mg/dL and the “Food Consumption” value is given as 14.9 ± 1.0 g/day. In addition, in data set [7] (only with administration at 1800), the “HDL-cholesterol, change in words” value is “increase”. Also, in [8] (1/2 h before bedtime), the “overall and mean peak growth hormone levels during the night” value is “dramatically reduced”. For the same molecule, in data set [8], the insulin-induced hypoglycemia result is given as “did not affect sleep patterns or insulin-induced hypoglycemia”, the “prolactin levels during sleep” value was “did not affect prolactin levels during sleep” and the sleep patterns result is “did not affect sleep patterns”. Also, in data set [9] (AM (light onset), 18 days after last treatment), the “Retroperitoneal Fat” value is listed as 2.78 ± 0.08 g. Further, in data set [9] (setting [19]), the Cholesterol was 94.7 ± 4.9 mg/dL, the Glucose stood at 151.8 ± 19.6 mg/dL, the “HDL Cholesterol” value is recorded as 32.5 ± 4.1 mg/dL and the Insulin worked out at 144.1 ± 5.9 μU/mL. In [9] (setting [19]), this molecule registered a Triglycerides of 197 ± 18 mg/dL. The “Retroperitoneal Fat” value in data set [9] (PM (light offset), 18 days after last treatment) is reported as 2.45 ± 0.07 g. For the same molecule, in [9] (setting [20]), the Cholesterol turned out to be 94.1 ± 5.7 mg/dL, the “HDL Cholesterol” value worked out at 45.2 ± 4.2 mg/dL, the Insulin is 163.8 ± 2.7 μU/mL and the Triglycerides is listed as 106 ± 21 mg/dL. Further, the “persistence after cessation of treatment” value in data set [9] (Table 6) is recorded as “long-term effect that persists after cessation of the treatment”. In data set [9] (light onset or offset), the “glucose, change in words” value is “significantly reduced”; the “insulin, change in words” value is “significantly reduced”; the “retroperitoneal fat, change in words” value is “significantly reduced”. For the same molecule, in data set [9] (setting [21]), the “cholesterol, change in words” value was “significantly increased cholesterol”; the “insulin, change in words” value was “significantly reduced triglycerides and insulin”; the “triglycerides, change in words” value is listed as “significantly reduced triglycerides”. Further, in data set [9] (only at light offset), the “HDL, change in words” value is “increased HDL” and the “triglycerides, change in words” value was “significantly reduced”. In [10] (after physostigmine), the “elevated AVP levels” value was “decreased”, the elevated cortisol levels result is “decreased” and the elevated prolactin levels result is “decreased”. The growth hormone secretion result in data set [10] was “inhibited”.

`CN1CCN(CC(=O)N2c3ccccc3C(=O)Nc3cccnc32)CC1` [pirenzepine]: the half-life entry in [4] is “about 11 hours”.

As to `CC(C)C[C@H]1C(=O)N2CCC[C@H]2[C@]2(O)O[C@](NC(=O)[C@@H]3C=C4c5cccc6[nH]c(Br)c(c56)C[C@H]4N(C)C3)(C(C)C)C(=O)N12` [bromocriptine], the plasma glucose concentration result in data set [11] (2 h prior to glucose challenge) is on record as “decrease”. For the same molecule, in data set [11], the Plasma Insulin result is on record as “decrease with drug administration was significant” and the plasma prolactin levels result was “decreased markedly”. In addition, in data set [12], the patients having aggravation is listed as 4, the “patients having improvement in glucose regulation” value is given as “six” and the “patients showing no significant change” value is on record as 14.

With `CC[C@H](C)C(=O)O[C@H]1C[C@@H](C)C=C2C=C[C@H](C)[C@H](CC[C@@H]3C[C@@H](O)CC(=O)O3)[C@H]21` [lovastatin], in [13], the “increase in HDL concentrations” value was 5-10% and the total cholesterol entry was “specifically reduces total cholesterol”. Also, the HMG-CoA reductase inhibition result in data set [14] is “selectively inhibits”.

Consider `CCOC(=O)C(C)(C)Oc1ccc(Cl)cc1` [clofibrate], for which, in data set [15], the effectiveness result is on record as “varies from subject to subject”; the side effects entry is “nephrotic syndromes, myalgia, nausea and abdominal pain”.

As for `CN1[C@@H]2C[C@@H](OC(=O)[C@H](CO)c3ccccc3)C[C@H]1[C@@H]1O[C@@H]12` [scopolamine], the “susceptibility to motion sickness” value in data set [16] (0.01 mg/kg orally 2 h before rotation) was “significantly decreased”. Also, the “hormone concentrations (ACTH, cortisol, STH, prolactin) vs placebo” value in data set [16] (0.01 mg/kg orally) is “identical”. The “rapid eye movement latency” value in data set [17] is given as “significant dose-related delay”.

Source of the values: US5712265A (The General Hospital Corporation, priority 1995, dated 1998).
